What all share (type): cell-based
One test has as its system CHL-1 melanoma cells. The experiment in a line: Single and dual drug treatment, cell growth of CHL-1 melanoma cells. As to conditions: growth observed on days 7, 14, 21, 28, 35. On the procedure:
FIG. 11.|A drug screen was performed on CHL-1 melanoma cells. The cells were treated with DMSO (control), GDC-0973 (i.e., cobimetinib), GDC-0032 (PI3K-Alpha Inhibitor), BFJ-398 (pan FGFR inhibitor), GDC-0973 and GDC-0032, or GDC-0973 and BGJ-398.
Experiments were performed on CHL-1 melanoma cells to determine the effect of single and dual drug treatment on cell growth (FIG. 11). The cells were treated with DMSO (control), GDC-0973, GDC-0032, BGJ398, GDC-0973 and GDC-0032, or GDC-0973 and BGJ398. Cell growth was observed on days 7, 14, 21, 28, and 35, or until the cells had reached near 100% confluency. […] In contrast, cells treated with the combination treatment of GDC-0973 and GDC-0032 or the combination of GDC-0973 and BGJ398 never reached confluency through day 35.

In test [1] the test system is HS 895.T normal skin fibroblast cells. Put plainly: Single and dual drug treatment, cell growth of HS 895.T normal skin fibroblast cells. The settings on record: growth observed on days 7, 14, 21, 28, 35. On the procedure: FIG. 13.|A drug screen was performed on Hs 895.T normal skin fibroblast cells. The cells were treated with DMSO (control), GDC-0973 (i.e., cobimetinib), GDC-0032 (PI3K-Alpha Inhibitor), BFJ-398 (pan FGFR inhibitor), GDC-0973 and GDC-0032, or GDC-0973 and BGJ-398.
Experiments were performed on HS 895.T normal skin fibroblast cells to determine the effect of single and dual drug treatment on cell growth (FIG. 13). The cells were treated with DMSO (control), GDC-0973, GDC-0032, BGJ398, GDC-0973 and GDC-0032, or GDC-0973 and BGJ398. Cell growth was observed on days 7, 14, 21, 28, and 35, or until the cells had reached near 100% confluency. […] The cells treated with GDC-0973, GDC-0032, GDC-0973 and GDC-0032, and GDC-0973 and BGJ398 never reached confluency through day 35.

Test [2] deals with pERK in SK MEL 24 VemR cells. The experiment in a line: Western blot of treated SK MEL 24 VemR cells. The settings on record: GDC-0973 0.5 μM, BGJ398 1 μM, 24 hours. On the procedure:
FIG. 14.|Single resistant SK MEL 24 VemR (SK MEL 24 cells resistant to vemurafenib) were treated with vemurafenib (i.e., PLX4032), BGJ398, and/or cobimetinib (i.e., GDC-0973). The cells were then processed and the presence/absence of FGFR1, pAKT, pMEK, pERK, PARP, pBAD, BIM, and βactin (control) were detected by Western blot. A melanoma cell line was made that is resistant to vemurafenib (“SK MEL 24 VemR”). The SK MEL 24 VemR cells were treated with vemurafenib (PLX4032), BGJ398, GDC-0973, BGJ398 and GDC-0973, vemurafenib and BGJ398, vemurafenib and GDC-0973, or vemurafenib, BGJ398, and GDC-0973. In all treatment conditions, the concentration of vemurafenib was 5 μM, the concentration of BGJ398 was 1 μM, and the concentration of GDC-0973 was 0.5 μM. The exposure time for all treatments was 24 hours. The cells were then processed and FGFR1, pAKT, pMEK, pERK, PARP, pBAD, BIM, and P-actin were probed for using Western blot.
Background: Immunoblotting shows a protein as a band on a membrane.

For a further test, the system named is melanoma cell line. The experiment in a line: Secreted factor screen for resistance to B-raf and MEK antagonists in melanoma cell lines. On the procedure:
(§1) FIG. 1A-D.| Factors secreted by tumor cells and/or the tumor microenvironment contribute to drug resistance through activation of cell-surface receptors. […] D, Secreted growth factors which promote resistance to PLX4032 reactivate MAPK and PI3K pathways. Activation of MAPK by FGF2, MAPK and AKT by HGF and AKT by NRG1 and SCF are shown in 624 MEL cells in the presence of PLX4032. Treatments were 5 μM PLX4032 for 24 hours and 50 ng·mL FGF2, HGF, NRGB1, or SCF for 10 minutes.

In test [3] the test system is B-raf mutant melanoma cell lines. The experiment in a line: FGF2 rescue (drug resistance) in B-raf mutant melanoma cell lines. On the procedure: (§2) FIG. 5A-C.| Screen of 10 melanoma cell lines and 10 breast cancer lines was performed to determine the role of FGF signalling in drug resistance. […] C, Summary of FGF receptors, their subfamily, and their ligands.
(§3) FGF signalling and resistance was studied in 10 HER2+ breast cancer cell lines and in 10 B-raf mutant melanoma cell lines (FIG. 5). 7 of the 10 HER2+ breast cancer cell lines were rescued by FGF2 (FIG. 5A). 8 of the 10 B-raf […] were rescued by FGF2 (FIG. 5B). Subsequent analysis determined that 50-70% of the melanoma lines with the V600E mutation were rescued by FGF2 (n=30).

Test [4] relates to HER2+ breast cancer cell lines. The experiment in a line: FGF2 rescue (drug resistance) in HER2+ breast cancer cell lines. The settings on record: of 10 HER2+ breast cancer cell lines. On the procedure: as §2, §3
A further test has as its system 624 MEL cells. The experiment in a line: Reactivation of MAPK and PI3K pathways by secreted growth factors in presence of PLX4032. The settings on record: 5 μM PLX4032 24 hours, 50 ng/mL factor 10 minutes. The method, then: as §1
Test [5] deals with HER2+ breast cancer cells. Put plainly: Immunoblot of HER2+ breast cancer cells exposed to FGF2 with or without lapatinib. As to conditions: FGF2 50 ng/mL for 10 minutes or 24 hours, with or without lapatinib 2 μM. On the procedure:
FIG. 6A-B.| FGF2 reactivates key signalling pathways to promote resistance and stimulates sustained activation of downstream signaling. A, An immunoblot of cells exposed to FGF2 for 10 min compared to cells absent exposure. B, An immunoblot of cells exposed to FGF2 for 24 hrs compared to cells absent FGF2 exposure.
Furthermore, it was determined that FGF2 reactivates key signalling pathways to promote resistance (FIG. 6). This was shown in a cell assay wherein HER2+ breast cancer cells were exposed to FGF2 (50 ng/mL) for 10 minutes in the presence or absence of lapatinib (2 μM) (FIG. 6A). Similarly, an assay was performed wherein HER2+ breast cancer cells were exposed to FGF2 (50 ng/mL) for 24 hours in the presence or absence of lapatinib (2 μM) (FIG. 6B).

Some results are limits rather than exact numbers.

On to `CCN1CCN(c2ccc(Nc3cc(N(C)C(=O)Nc4c(Cl)c(OC)cc(OC)c4Cl)ncn3)cc2)CC1` [BGJ398, 3-(2,6-Dichloro-3,5-dimethoxy-phenyl)-1-{6-[4-(4-ethyl-piperazin-1-yl)-phenylamino]-pyrimidin-4-yl}-1-methyl-urea], for which the “day by which cells reached confluency” value with CHL-1 melanoma cells is at most 14 days; in test [1] it was at most 28 days.
Consider `Cc1nc(-c2cn3c(n2)-c2ccc(-c4cnn(C(C)(C)C(N)=O)c4)cc2OCC3)n(C(C)C)n1` [GDC-0032], for which, in the test with CHL-1 melanoma cells, the “day by which cells reached confluency” value is at most 7 days.
Take `O=C(c1ccc(F)c(F)c1Nc1ccc(I)cc1F)N1CC(O)([C@@H]2CCCCN2)C1` [GDC-0973, [3,4-Difluoro-2-(2-fluoro-4-iodo-phenylamino)-phenyl]-((S)-3-hydroxy-3-pi-peridin-2-yl-azetidin-1-yl)-methanone]: the “pERK levels (Western blot)” value in test [2] is listed as “lower pERK levels”. Further, in the test with CHL-1 melanoma cells, the “day by which cells reached confluency” value was at most 28 days.
Regarding “FGF2: secreted growth factor, FGFR ligand, promotes resistance”, the “rescue of tumor cells from B-raf and MEK antagonists” value in the test with melanoma cell line was “most broadly and potently”. Besides, the “number of cell lines rescued by FGF2” value in test [3] (of 10 cell lines (FIG. 5B)) turned out to be 8; in test [4] it was 7. Also, the “melanoma lines with the V600E mutation rescued by FGF2” value in test [3] (subsequent analysis, n=30) is given as 50-70%. Also, the “pathway activated in the presence of PLX4032” value (“pathway activated” for short) with 624 MEL cells was “MAPK”. Besides, the “activation of downstream signalling” value in test [5] is recorded as “stimulates sustained activation of downstream signalling”.
Consider “HGF: secreted growth factor promoting resistance to PLX4032”, for which the “rescue of tumor cells from B-raf and MEK antagonists” value in the test with melanoma cell line is “most broadly and potently”. Further, the “pathway activated” value in the test on 624 MEL cells was “MAPK and AKT”.
Take “SCF: secreted growth factor promoting resistance to PLX4032”: the “pathway activated” value in the test with 624 MEL cells is listed as “AKT”.

Source of the values: patent US20230190750A1, “METHODS OF TREATING AND PREVENTING CANCER DRUG RESISTANCE” (Genentech, Inc., priority 2014, published 2023).
